# Experiments:
# Assay type in all cases: cell-based, human
# [1] = tested on: hPSC-derived day 4 mesoderm; assay: VEGF and bFGF titration on day 4 mesoderm cultures, day 6 flow cytometry for CD34+ angioblast subpopulations
# Procedure: (1A) Schematic of EB-based hPSC differentiation to venous angioblasts. (1B) Heatmap comparing kinetic gene expression profiles of day 0-8 bulk EB populations and day 8 CD34+ MACS enriched angioblasts following venous differentiation (day 4-8 10 ng/ml VEGFA, 30 ng/ml bFGF 10 μm GSI) as in (1A). High (dark) and low (light) expression levels are indicated for each gene. (1C) Representative flow cytometric analysis of day 4 KDR+CD56+CD235a-mesodermal cells and day 8 CD34+CD31 low venous angioblasts before and after MACS enrichment. […] For all qRT-PCR analysis, expression values are normalized to levels of the housekeeping gene TBP. Error bars represent SEM.
# Previous work from our group (Ditadi et al., 2015) and others (Zhang et al., 2017), has shown that VEGF, bFGF, NOTCH signaling play a role in the specification of arterial and venous vascular fates in hPSC differentiation cultures. The effects of VEGF signaling in promoting arterial and venous development were assessed. To address this, different concentrations of VEGF (0 to 100 ng/ml) were added to day 4 cultures that contained low amounts of bFGF (5 ng/ml) and the resulting day 6 populations were analyzed for the presence of CD34^+CD31^+ vascular cells and CD184^+CD73^lowCD34^+ and CD184^−CD73^+CD34^+ populations that we have previously shown contain progenitors specified to arterial and venous fates respectively.
# [2] = tested on: venous angioblast-derived populations; assay: LSEC-LC specification of venous angioblast-derived populations, RT-qPCR of LSEC associated markers; conditions: for expression of LSEC associated markers (LYVE1, STAB2, FCGR2B, F8): treated every 2 days for 4 days, RT-qPCR of bulk populations
# Procedure: (3A) Schematic of EB-based hPSC-derived day 4 mesoderm differentiation to venous angioblasts, endothelial cells and LSEC-like cells (LSEC-LCs). […] For all qRT-PCR analysis, expression values are normalized to levels of the housekeeping gene TBP. Error bars represent SEM.
# The resulting bulk populations were analyzed for expression of LSEC associated markers by RT-qPCR (FIG. 3B). Based on immunofluorescence (Strauss et al., 2017), flow cytometry (Fomin et al., 2013), bulk RNA-seq (Shahani et al., 2014), and recent single cell RNA-seq of human liver (MacParland et al., 2018) studies, human LSECs are distinguished by the co-expression of surface receptors, secreted proteins, and transcription factors including, LYVE1, CD14, CD32B (FCGR2B), CD36, CD54 (ICAM1), CD73, CD144, CD206 (MRC1), STAB1, STAB2, CLEC1B, PLAVP, GATA4 and F8 among others. Additionally, they express lower levels of canonical vascular markers such as CD31(PECAM1), CD34, CD105, CD309 (KDR), and VWF than portal arterial and venous endothelial cells. As a candidate marker set we focused the analysis on expression of scavenger receptors LYVE1, STAB2, CD32B/FCGR2B, F8, and VWF.
# arterial and venous ECs = assay: IOX2 treatment of arterial and venous LSEC-LCs (HIF1a signalling), flow cytometry and qRT-PCR
# Description: FIG. 6: CD32B Expression is Regulated by Hypoxia/HIFla Signalling. […] (6B) Representative flow cytometric analysis of normoxic cultured CD31+ arterial LSEC-LCs treated with DMSO or IOX2 at increasing doses (days 12-16). (6C) qRT-PCR analysis of LSEC markers in day 16 arterial and venous LSEC-LCs cultured under normoxia conditions treated with DMSO or increasing IOX2 doses for 4 days (ANOVA with Bonferroni test, *p<0.05, comparing arterial and venous cells at give IOX2 doses). (6D) Representative flow cytometric analysis of day 16 arterial and venous CD31+ LSEC-LCs cultured under normoxic and hypoxic conditions with and without IOX2. For all qRT-PCR analysis, expression values are normalized to levels of the housekeeping gene TBP. Error bars represent SEM.
# To further investigate the role of oxygen on LSEC marker expression, we next interrogated the HIFI a signaling pathway as a probable mechanistic regulator of EC gene expression.
# [3] = tested on: tdRFP+ CD31+ CD32+ LYVE1+ cells; assay: Fenestration by scanning electron microscopy after latrunculin A stimulation
# Description: FIG. 11: hPSC-Derived, In Vivo Matured LSECs are Fenestrated and Scavenge E. coli Bioparticles. (11A) Representative scanning electron microscopic images of primary human insitu vasculature imaged on the cut surface of fresh fixed liver tissue. LSECs, terminal portal venous endothelium and hepatic artery endothelium are shown for comparison of presence (indicated by white arrows) or absence of fenestrations. (11B) Representative scanning electron microscopic images of day 8 venous angioblast-derived, in vivo-matured, FACS-isolated based on indicated marker panels, overnight-cultured, treated for 30 minutes with or without fenestration (white arrows) stimulating 0.1 μg/ml Latrunculin A, fixed and processed for SEM. Imaging conditions and scale bar are indicated on each image. (11C) Quantification of fenestrated cells (>10 fenestrations arranged in a defined sieve plate cluster), endothelial cells (smooth edged cells with angiogenic lateral sprouts free from fibroblast-like adhesions), non-endothelial cells (fibroblast-like cells and rounded cells) was performed manually on the indicated numbers of cells from a total of at least 4 independent replicates pooling the data. Comparative in vitro derived cells including venous LSEC-LCs sorted as CD31+CD32+LVYE1+ on day 18, replated and cultured for an additional 10 days in addition to standard multi-donor derived HUVECs that were also quantified with and without Latrunculin A stimulation. (11D-11E) Quantification of fenestration size (longest diameter) in (11C) primary human LSECs in situ (black), venous angioblast-derived, in vivo matured and isolated LSECs with (white) and without (grey) latrunculin A stimulation. (11E) Quantification of surface area of LSECs covered by fenestrations before and after latrunculin stimulation. Error bars represent SEM. […]
# [4] = bFGF up to 30 ng/ml with VEGF 100 ng/ml, days 4-6
# [5] = arterial and venous ECs, normoxia, 4 days, qRT-PCR
# [6] = tdRFP+ CD31+ CD32+ LYVE1+ cells, 30 minutes stimulation
molecule,measurement,setting,value
"bFGF: bFGF (also referred to as FGF2), growth factor",size of the CD34+CD184+CD73low subpopulation,[1]; [4],decrease
same,size of the CD34+CD184-CD73- subpopulation,[1]; [4],increase
same,size of the total CD34+ population,[1]; [4],modest increase
"NC(=O)c1ccc(-c2nc(-c3ccc4c(c3)OCO4)c(-c3ccccn3)[nH]2)cc1 [SB431542, 4-(4-(benzo[d][1,3]dioxol-5-yl)-5-(pyridin-2-yl)-1H-imidazol-2-yl)benzamide]","expression of LSEC associated markers (LYVE1, STAB2, FCGR2B, F8)",[2],induced the expression of STAB2 and FCGR2B but not LYVE1
O=C(O)CNC(=O)c1c(O)c2ccccc2n(Cc2ccccc2)c1=O [IOX2],conversion of CD31+ ECs to LYVE1+CD32+ LSEC-LCs,"arterial and venous ECs; 4-day application under hypoxic conditions, by day 16",highly efficient conversion
same,CD32 protein,"arterial and venous ECs; CD31+LYVE1+ arterial ECs under elevated oxygen conditions, increasing doses, days 12-16",dose dependant upregulation
same,FCGR2B and F8 expression,arterial and venous ECs; [5],upregulated
same,LYVE1 expression,arterial and venous ECs; [5],significantly downregulated
same,STAB2 expression,arterial and venous ECs; [5],did not change
VEGF,bias of CD34+ cells to arterial or venous subpopulation,"[1]; 100 ng/ml VEGF, 5 ng/ml bFGF, day 6",predominantly CD184^+CD73^low arterial-like population
same,frequency of CD34+ cells,"[1]; VEGF 0 to 100 ng/ml added to day 4 cultures with 5 ng/ml bFGF, day 6",significant and dose dependant increase
C/C1=C/C(=O)O[C@@H]2C[C@@H](CC[C@H](C)/C=C\C=C\CC1)O[C@@](O)([C@@H]1CSC(=O)N1)C2 [latrunculin A],induction of fenestrations,[3]; HUVECs and extended culture venous LSEC-LCs,nor were they able to be induced to form fenestrations
same,cell surface covered by stimulated fenestrations,[3]; [6],approximately 40%
same,size of the fenestration type that accounts for the increase,[3]; [6],~60 nm
"VEGFC: VEGFC growth factor, 0 or 100 ng/ml (protein, UniProt P49767 112-227, looked up) Vascular endothelial growth …: AHYNTEILKSIDNEWRKTQCMPREVCIDVGKEFGVATNTFFKPPCVSVYRCGGCCNSEGLQCMNTSTSYLSKTLFEITVPLSQGPKPVTISFANHTSCRCMSKLDVYRQVHSIIRR",expression of lymphatic markers PROX1 and FLT4,"[2]; VEGFC 100 ng/ml, 4 days, RT-qPCR",increased
same,"expression of LSEC associated markers (LYVE1, STAB2, FCGR2B, F8)",[2],modestly enhance the expression of some LSEC markers
